Entries after “also recorded” stand apart in the source; their conditions may differ.
Experiments:
[1] = tested on: GL261 mouse glioma; assay: Anti-mouse PD-1 antibody therapeutic efficacy (survival) in intracranial syngeneic glioma; type: in vivo, C57 BL/6 mice; details: IC 40 μl 5% NEO100 and/or IV anti-PD1 2.5 mg/kg; treatment from day 7
Method: 100,000 GL261 mouse glioma cells were injected intracranially to immune competent mice, C57 BL/6. 7 days post the injection, the mice were randomly divided into 4 experimental groups, and initiated the treatment at the same day. • Group 1. Control: IV and Intracardiac injection of 40 μl Saline Solution (5). • Group 2. Antibody treated mice: IV 40 μl Anti-mouse PD1 antibody at the dose of 2.5 mg/kg (5). • Group 3. NEO100 treated mice: Intracardiac injection of 40 μl 5% NEO100(5). • Group 4. Combination of NEO100 and antibody treated mice: Intracardiac 40 μl 5% NEO100, followed by IV 40 μl Anti-PD1 antibody at the dose of 2.5 mg/kg (6).
Animal survival data were plotted using the Kaplan-Meier method. One-way ANOVA was used for the overall test for differences. Grouped comparisons were performed using the Tukey method of adjusting for multiple comparisons. Logrank (Mantel-Cox) test was applied for the comparison of survival curves. A statistical evaluation result of p<0.05 was considered significant. • Control vs IC NEO100+IV Anti-mouse PD-1: *** P<0.0003 • Control vs IV Anti-mouse PD-1: ns, p=0.31 • IV Anti-mouse PD-1 vs IC NEO100+IV Anti-mouse: ** P<0.005 • Control vs IC NEO100: ns, p=0.397

[2] = tested on: blood-brain-barrier
Method: Brain Perfusion-Before euthanizing, the testing animals was perfused by 0.9% normal saline solution through left ventricle. The brain was removed and buried in OCT, and stored in −80° C. for further analysis.
Ultrasound Guided Intracardiac Puncture-Briefly, the animals were anesthetized using 2% isoflurane gas and fixed on the platform for intracardiac puncture. To penetrate the syringe needle into intercoastal space promptly through skin and muscle layers into the left ventricle under the guidance of ultrasound imaging. An indication of successful insertion of the needle into the left ventricle is the reflux of fresh arterial blood (pink color in contrast to dark red venous blood) into the syringe.
The extravasation of stained albumin from circulation could be visualized.
NEO100 was delivered via intra-cardiac injection (left ventricle) to determine if there is increased uptake of Evans Blue, a BBB nonpermeable small molecule (dopamine), or antibodies into the brain. […] Different concentration of NE0100 (40 μl in 0.9% saline) was tested through intracardiac puncture, followed by immediate intravenous application of 2% Evans Blue (40 μl in volume). The brain was removed after perfusion.
Experimental groups include: • IC 2% EB only • IC 20% ethanol+2% EB • IC 20% ethanol+2% EB+5% NEO100 • IC 20% ethanol+5% NEO100, followed by 2% EB tail vein injection • IV 20% ethanol+2% EB+5% NEO100 • IV 20% ethanol+2% EB
The immune competent C57 BL/6 mice was injected with 5% NEO100 (v/v) through intracardiac puncture (IC), followed by intravenous injection of 2% Evans Blue at different time points, such as 0, 5 min, 15 min, 30 min, 1-hour, 2-hour, 3-hour, and 4 hours, post the IC injection.
The experimental procedure included: • 1. Intracardiac Injection (IC): 5% NEO100. • 2. Followed by intravenous injection (IV) of 2% EB at different times. • 3. The testing animals were euthanized one hour after the IV injection.

[3] = tested on: Madin-Darby Canine Kidney (MDCK) cells; assay: In vitro BBB tight junction model (Transwell, TEER, fluorescent antibody); type: cell-based
Method: The labelled components are Transwell chemotaxis chamber; upper chamber; porous membrane and lower chamber. Transwell culture chambers (pore size: 0.8 μm). Madin-Darby Canine Kidney (MDCK) cells are epithelial cells. TEER: transepithelial/transendothelial electrical resistance. Fluorescence Ab: Alexa Fluo®488; donkey anti-rat IgG (H+L). Fluorescence was measured in the lower chamber in about 120 minutes.

[4] = tested on: GL261 mouse glioma; assay: NEO100-mediated human CAR T cell delivery to brain and tumor (CD3 IHC); type: in vivo
Method: 2-million CD19 and Lym-1 human CAR T cells that were suspended in 0.9% saline working solution to be used for the IV injection with and without intracardiac NEO100.
Preparation of the working solution for intracardiac injection of NEO100: 3% NEO100 suspended in 0.9% saline.
40 μl 3% NEO100 in saline was injected slowly to complete intracardiac application. Direct cell injection into the heart could cause local microinfaractions if the cells are clumpy during injection, hemopericardium and death as a consequence. This is why ultrasound guided injections with a small 30 G needle is important to minimize these potential adverse effects, (1) enabling the visualization of the needle tract to ensure that the needle enters the left ventricle only, and (2) subsequent monitoring of the heart through not only ECG but visualization of heart wall function after the injection. The fine gauge of the needle ensures that the cells are not clumpy when the cells are injected through intracardiac puncture.
Immediate after the completion of NEO100 injection, 2 million human CAR T cells in 40 μl PBS were injected through tail vein catheter that pre-primed with saline solution. To avoid the possible adverse effects mentioned above by direct cell injection through intracardiac application, we set up 2-step procedures for the study.
Step 1: 40 μl 3% NEO100 in saline was injected slowly to complete intracardiac application. This procedure allows NEO100 to exert the function of BBB disruption.
Step 2:2-million CAR T cells were injected by IV through tail vein catheter.
Brain Perfusion—In order to rule out the residue left over inside the blood vessel after euthanizing, the testing animals were perfused by 10 ml 0.9% normal saline solution through left ventricle to flush out the blood.
Confocal Imaging—8 UM fresh frozen sections were made by cryostasis machine and pasted on microslide. Coverslip was mounted on the brain section by DAPI mounting medium before Confocal examination. […]

[5] = tested on: BBB in an in vitro BBB model; assay: In vitro BBB model, remdesivir transport across Transwell; type: cell-based; details: POH 1.5 mM; POH-Remdesivir vs H2O-Remdesivir in upper chamber; 4 hours
Method: For the in vitro, cells were plated in the upper chamber of a Transwell. The POH-Remdesivir or H2O-Remdesivir mixture was placed in the upper chamber. POH was at a concentration of 1.5 mM. The media from both upper and lower chambers were collected after 4 hours and quantitated for remdesivir.

[6] = tested on: recurrent malignant gliomas; details: intranasal delivery, cited from earlier work

For `C=C(C)[C@@H]1CC=C(CO)CC1` [NEO100, perillyl alcohol], the animal survival [1] was “dead”, the “disturbance of the BBB (Evans Blue uptake into brain)” value ([2]; 1:1000 dilution (6.5 mM 40 μl) IC, then IV 2% Evans Blue) was “still effective to disturb the BBB” and the “dopamine delivery to brain” value ([2]; intracardiac NEO100) was “mediated dopamine delivery through the breached blood-brain-barrier”. For the same molecule, the “opening of the BBB for antibodies” value ([2]; intracardiac injection (equivalent to intra-arterial injection for mice)) was “could open the BBB for antibodies”, the “tight junction in the brain” value ([2]; intracardiac injection of 5% NEO100 compared to normal brain) was “breached dramatically” and the “safety of intraarterial administration” value ([2]; mouse, in vivo) was “safe”. The “penetration of fluorescence labelled antibody across in vitro BBB model” value ([3]; Alexa Fluor 488 donkey anti-rat IgG, lower chamber at about 120 minutes) was “transiently allow labeled antibodies to transiently cross it; also recorded: enhanced penetration”, the TEER ([3]; NEO100 2 mM) was “decreased” and the “severe adverse effect or animal death” value ([4]; 3% NEO100 intracardiac injection, 40 μl) was “does not cause any severe adverse effect or animal death”. For the same molecule, the “penetration of human CAR T cells into the tumor formed inside the brain” value ([4]; IC 3% NEO100 then IV 2 million anti-CD19 or Lym-1 CAR T cells, compared to IV only, 6 h) was “greatly increase the penetration”, the “CD3 positive cells in the normal parts of brain” value ([4]; IC NEO100 vs IV injection only samples) was “More CD3 positive cells” and the “delivery of remdesivir across the BBB” value [5] was “very efficient”. The “treated patients achieving 6 month progression-free period” value ([6]; 140 treated patients) was 50%, the “disease remission, several patients” value [6] was ≤ 3 years and the disease response [6] was “regression or stabilization of the disease”. The “side effects from the treatment” value [6] was “almost non-existent”.

Reference: US20250186472A1, “COMBINATION OF POH AND REMDESIVIR FOR TREATMENT OF CNS INFECTIONS” (NeOnc Technologies, Inc., priority 2020, published 2025)
